Measurements as given in PubChem BioAssay (NCI).
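Cultured in 96-well plates, cells were exposed to test compound for 48 hours across five concentrations. Here, GI50 denotes the concentration required for 50% inhibition of growth. At the TGI there is no net growth.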

Assays:
Assay in all cases: DTP human tumour cell line panel, 48 h
[1] = tested on: 786-0 renal
[2] = tested on: A498 renal
[3] = tested on: A549 NSCLC
[4] = tested on: ACHN renal
[5] = tested on: BT-549 breast
[6] = tested on: CAKI-1 renal
[7] = tested on: CCRF-CEM leukemia
[8] = tested on: COLO 205 colon
[9] = tested on: DU-145 prostate
[10] = tested on: EKVX NSCLC
[11] = tested on: HCC-2998 colon
[12] = tested on: HCT-116 colon
[13] = tested on: HCT-15 colon
[14] = tested on: HL-60(TB) leukemia
[15] = tested on: HOP-62 NSCLC
[16] = tested on: HOP-92 NSCLC
[17] = tested on: HS 578T breast
[18] = tested on: HT29 colon
[19] = tested on: IGROV1 ovarian
[20] = tested on: K-562 leukemia
[21] = tested on: KM12 colon
[22] = tested on: LOX IMVI melanoma
[23] = tested on: M14 melanoma
[24] = tested on: MALME-3M melanoma
[25] = tested on: MCF7 breast
[26] = tested on: MDA-MB-231 breast
[27] = tested on: MDA-MB-435
[28] = tested on: MOLT-4 leukemia
[29] = tested on: NCI-H226 lung
[30] = tested on: NCI-H23 lung
[31] = tested on: NCI-H522 lung
[32] = tested on: NCI/ADR-RES ovarian
[33] = tested on: OVCAR-3 ovarian
[34] = tested on: OVCAR-4 ovarian
[35] = tested on: OVCAR-5 ovarian
[36] = tested on: OVCAR-8 ovarian
[37] = tested on: PC-3 prostate
[38] = tested on: RPMI-8226 leukemia
[39] = tested on: RXF 393 renal
[40] = tested on: SF-268 CNS
[41] = tested on: SF-295 CNS
[42] = tested on: SF-539 CNS
[43] = tested on: SK-MEL-2 melanoma
[44] = tested on: SK-MEL-28 melanoma
[45] = tested on: SK-MEL-5 melanoma
[46] = tested on: SK-OV-3 ovarian
[47] = tested on: SN12C renal
[48] = tested on: SNB-19 CNS
[49] = tested on: SNB-75 CNS
[50] = tested on: SR leukemia
[51] = tested on: SW-620 colon
[52] = tested on: T-47D breast
[53] = tested on: TK-10 renal
[54] = tested on: UACC-257 melanoma
[55] = tested on: UACC-62 melanoma
[56] = tested on: UO-31 renal

`O=c1[nH]cnc2c1ccn2C1OC(CO)C(O)C1O` (configuration not stated) was tested, and the GI50 [1] was 3.56 µM, the TGI [1] was greater than 100 µM and the GI50 [2] was 4.72 µM. For the same compound, the TGI [2] was 70.5 µM, the GI50 [3] was 7.53 µM and the TGI [3] was greater than 100 µM. For the same compound, the GI50 [4] was 2.51 µM, the TGI [4] was greater than 100 µM and the GI50 [5] was 5.86 µM. For the same compound, the TGI [5] was greater than 100 µM, the GI50 [6] was 2.57 µM and the TGI [6] was greater than 100 µM. It also gave a GI50 [7] of 4.74 µM, a TGI [7] of 96 µM and a GI50 [8] of 3.41 µM. For the same compound, the TGI [8] was 26.5 µM, the GI50 [9] was 2.34 µM and the TGI [9] was 23.8 µM. For the same compound, the GI50 [10] was 17.8 µM, the TGI [10] was greater than 100 µM and the GI50 [11] was 7.66 µM. The TGI [11] was greater than 100 µM, the GI50 [12] was 2.29 µM and the TGI [12] was 28.8 µM. The GI50 [13] was 4.1 µM, the TGI [13] was greater than 100 µM and the GI50 [14] was 3.88 µM. It also gave a TGI [14] of 21.1 µM, a GI50 [15] of 6.7 µM and a TGI [15] greater than 100 µM. It also gave a GI50 [16] of 2 µM, a TGI [16] of 15.5 µM and a GI50 [17] of 14 µM. It also gave a TGI [17] greater than 100 µM, a GI50 [18] of 5.73 µM and a TGI [18] greater than 100 µM. The GI50 [19] was 4.32 µM, the TGI [19] was 35.1 µM and the GI50 [20] was 5.86 µM. The TGI [20] was greater than 100 µM, the GI50 [21] was 8.89 µM and the TGI [21] was greater than 100 µM. It also gave a GI50 [22] of 2.18 µM, a TGI [22] of 16 µM and a GI50 [23] of 4.36 µM. It also gave a TGI [23] greater than 100 µM, a GI50 [24] of 6.42 µM and a TGI [24] of 32.8 µM. It also gave a GI50 [25] of 2.41 µM, a TGI [25] greater than 100 µM and a GI50 [26] of 4.27 µM. For the same compound, the TGI [26] was greater than 100 µM, the GI50 [27] was 9.35 µM and the TGI [27] was greater than 100 µM. It also gave a GI50 [28] of 4.38 µM, a TGI [28] of 20.3 µM and a GI50 [29] of 16.1 µM. It also gave a TGI [29] greater than 100 µM, a GI50 [30] of 6.01 µM and a TGI [30] of 65.4 µM. It also gave a GI50 [31] of 7.32 µM, a TGI [31] of 34.7 µM and a GI50 [32] of 3.2 µM. For the same compound, the TGI [32] was greater than 100 µM, the GI50 [33] was 5.68 µM and the TGI [33] was greater than 100 µM. For the same compound, the GI50 [34] was 1.48 µM, the TGI [34] was 28.7 µM and the GI50 [35] was 12 µM. For the same compound, the TGI [35] was greater than 100 µM, the GI50 [36] was 2.3 µM and the TGI [36] was 90.4 µM. It also gave a GI50 [37] of 3.35 µM, a TGI [37] greater than 100 µM and a GI50 [38] of 3.15 µM. For the same compound, the TGI [38] was 21.5 µM, the GI50 [39] was 3.12 µM and the TGI [39] was 22.9 µM. It also gave a GI50 [40] of 11.7 µM, a TGI [40] greater than 100 µM and a GI50 [41] of 8.6 µM. The TGI [41] was greater than 100 µM, the GI50 [42] was 10.7 µM and the TGI [42] was greater than 100 µM. The GI50 [43] was 3.04 µM, the TGI [43] was 17.5 µM and the GI50 [44] was 18.6 µM. For the same compound, the TGI [44] was greater than 100 µM, the GI50 [45] was 6.1 µM and the TGI [45] was 19.2 µM. For the same compound, the GI50 [46] was 3.72 µM, the TGI [46] was greater than 100 µM and the GI50 [47] was 3.6 µM. The TGI [47] was greater than 100 µM, the GI50 [48] was 14.8 µM and the TGI [48] was greater than 100 µM. For the same compound, the GI50 [49] was 3.8 µM, the TGI [49] was greater than 100 µM and the GI50 [50] was 5.38 µM. The TGI [50] was 49.3 µM, the GI50 [51] was 3.17 µM and the TGI [51] was greater than 100 µM. The GI50 [52] was 2.49 µM, the TGI [52] was 80 µM and the GI50 [53] was 3.64 µM. The TGI [53] was 51.3 µM, the GI50 [54] was 12.3 µM and the TGI [54] was 78 µM. The GI50 [55] was 10.1 µM, the TGI [55] was 27.8 µM and the GI50 [56] was 2.11 µM. It also gave a TGI [56] of 8.85 µM.
